Assay results from patent US4238620A, “Dibenz[b,f]oxepin and dibenzo[b,f]thiepin derivatives, process for preparation thereof, method of using the same, and compositions thereof” (priority 1978, dated 1980).
Read-outs that look alike come from different tables or passages of the source.

Key:
[1] = system: Carrageenin-induced hind paw oedema in rats; assay: Carrageenin-induced hind paw oedema in rats (CAR method), acute inflammation; assay type: in vivo; settings: Rattus norvegicus, po, read-out: Anti-inflammatory activity ED50, acute inflammation, CAR
Description: (§1) (1) Effect on acute inflammation:
(a) Carrageenin-induced hind paw oedema in rats (CAR method)
The test was carried out according to the method described in Proc. Soc. Exp. Biol. Med., 111, 544 (1962).

[2] = system: Felt pellet-induced granuloma formation in rats; assay: Felt pellet-induced granuloma formation in rats (FGF method), subacute and chronic inflammation; assay type: in vivo; settings: Rattus norvegicus, po, read-out: Minimum Effective Dose, subacute and chronic inflammation, FGF*
Description: (§2) (2) Effect on subacute and chronic inflammations:
(b) Felt pellet-induced granuloma formation in rats (FGF method)
The test was carried out according to the method described in J. Amer. Pharm. Assoc., 46, 515 (1957) and Chem. Pharm. Bull., 23, 1446 (1975).

[3] = system: Ultraviolet-induced erythema in guinea-pigs; assay: Ultraviolet-induced erythema in guinea-pigs (UVE method), acute inflammation; assay type: in vivo; settings: Cavia porcellus, po, read-out: Anti-inflammatory activity ED50, acute inflammation, UVE
Description: as §1
(b) Ultraviolet-induced erythema in guinea-pigs (UVE method)
The test was carried out according to the method described in Arch. Int. Pharmacodyn. Ther., 116, 261 (1958).

[4] = system: adjuvant-induced arthritis in rats; assay: Therapeutic activity on adjuvant-induced arthritis in rats (AAT method), subacute and chronic inflammation; assay type: in vivo; settings: Rattus norvegicus, po, read-out: Minimum Effective Dose, subacute and chronic inflammation, AAT*
Description: as §2
(a) Therapeutic activity on adjuvant-induced arthritis in rats (AAT method)
The test was carried out according to the method described in Brit. J. Pharmacol., 21, 127 (1963) and Japan J. Pharmacol., 23, 58 (1973).

[5] = system: AgNO3-induced joint pain in rats; assay: AgNO3-induced joint pain in rats (AGP method), analgesic activity; assay type: in vivo; settings: Rattus norvegicus, po, read-out: Analgesic activity ED50, AGP
Description: (§3) TEST 2. ANALGESIC ACTIVITY
(a) AgNO3 -induced joint pain in rats (AGP method)
The test was carried out according to the method described in J. Pharmacol. Expt. Ther., 98, 19 (1950)

[6] = system: Yeast-induced fever in rats; assay: Yeast-induced fever in rats (YEF method), antipyretic activity; assay type: in vivo; settings: Rattus norvegicus, po, read-out: Antipyretic activity ED50, YEF
Description: TEST 3. ANTIPYRETIC ACTIVITY
Yeast-induced fever in rats (YEF method)
The test was carried out according to the method described in Arzneim. Forsch., 13, 338 (1963).

in vivo [7] = settings: rat, po
[8] = Gastrointestinal ulcer formation in fed rats (ulcerogenicity); assay type: in vivo; settings: rat, in vivo, po, fed rats; read-out: UD50 (50% ulcer forming dose)
Description: TEST 4. ULCEROGENICITY IN GASTROINTESTINAL TRACT
Gastrointestinal ulcer formation in fed rats
The test was carried out according to the method described in Science, 170, 183 (1970).

[9] = system: Acetic acid (AcOH)-induced writhing in rats; assay: Acetic acid (AcOH)-induced writhing in rats (ACW method), analgesic activity; assay type: in vivo; settings: Rattus norvegicus, po, read-out: Analgesic activity ED50, ACW
Description: as §3
(b) Acetic acid (AcOH)-induced writhing in rats (ACW method)
The test was carried out according to the method described in Arzneim. Forsch., 25, 1505 (1975).

in vivo [10] = settings: rat, po; remark: listed apart in the source
Description: (§4) (b) Repeated administrations in rats
(§5) Test compounds were orally administered once daily for 5 days, and LD50 -value was calculated from the mortality on the 6th day.

[11] = Overall comparison of anti-inflammatory, analgesic and antipyretic activities (Tests 1 to 3); assay type: in vivo, rats; guinea-pigs
From the text: From these diagrams, the correlation between the pharmacological activity of each compound and its ulcerogenicity and toxicity, i.e. the safety margin of each compound, can be clearly seen. In these Figures, the lines and letters have the following meanings:
The following conclusions can be drawn from Tables I to III and FIGS. 1 and 2. In the following description, the therapeutic index means LD50 /ED50 (or MED), and the safety index means UD50 /ED50 (or MED). The safety margin of a given compound is broader when it has larger therapeutic and or safety indices.

rats = assay: Overall comparison of lethal toxicity (Test 5); assay type: in vivo; settings: vs indomethacin
Description: (a) Single administration in rats
as §4, §5

[12] = rats, single administration, 7th day, read-out: LD50 Single
[13] = rats, once daily for 5 days, mortality on 6th day, read-out: LD50 Repeated

Compound	ED50 [1]	minimal effective dose [2]	ED50 [3]	minimal effective dose [4]	ED50 [5]	ED50 [6]	LD50 at 168 h (in vivo [7]; [12])	TD50 [8]	ED50 [9]	LD50 at 144 h (in vivo [10]; [13])	ED50 ([1]; rats, CAR method)	minimal effective dose ([2]; rats, FGF method)	ED50 ([3]; guinea-pigs, UVE method)	ED50 ([6]; rats, YEF method)	other results
CC(C(=O)O)c1ccc2c(c1)C(=O)Cc1ccccc1O2 (stereo not shown) [compound 1, 2-(10,11-dihydro-11-oxodibenz[b,f]oxepin-2-yl)propionic acid, reference compound]	3.65 mg/kg	3 mg/kg/day	0.93 mg/kg	1 mg/kg/day	5.8 mg/kg	0.062 mg/kg	106 mg/kg	4.85 mg/kg	–	–	–	–	–	–	–
CC(C(=O)O)c1ccc2c(c1)C(=O)Cc1ccccc1S2 (stereo not shown) [compound 2, 2-(10,11-dihydro-11-oxodibenzo[b,f]thiepin-2-yl)propionic acid, reference compound]	1.2 mg/kg	0.25 mg/kg/day	0.98 mg/kg	< 0.1 mg/kg/day	1.66 mg/kg	0.022 mg/kg	–	0.62 mg/kg	1.16 mg/kg	2.15 mg/kg	–	–	–	–	–
Cc1ccc2c(c1)CC(=O)c1cc(CC(=O)O)ccc1O2 [compound B, 8-Methyl-10,11-dihydro-11-oxodibenz[b,f]oxepin-2-acetic acid]	–	–	–	–	–	–	–	–	–	–	2.2 mg/kg	20 mg/kg/day	4.48 mg/kg	0.357 mg/kg	activity on acute inflammation and fever compared with indomethacin ([11]; acute inflammation and fever, vs indomethacin): nearly comparable to that of indomethacin
Cc1ccc2c(c1)CC(=O)c1cc(CC(=O)OCCOCCO)ccc1O2 [compound F, 2-(2-Hydroxyethoxy)ethyl 8-methyl-10,11-dihydro-11-oxodibenz[b,f]oxepin-2-acetate]	–	–	–	–	–	–	–	–	–	–	7.95 mg/kg	–	–	–	–
CC(C(=O)OCCOCCO)c1ccc2c(c1)C(=O)Cc1ccccc1O2 (racemic) [compound D, 2-(2-Hydroxyethoxy)ethyl dl-2-(10,11-dihydro-11-oxodibenz[b,f]oxepin-2-yl)propionate]	–	–	–	–	–	–	–	–	–	–	2.87 mg/kg	6 mg/kg/day	1.5 mg/kg	0.112 mg/kg	ED50 ([9]; rats, ACW method): 1.06 mg/kg; activity on subacute and chronic inflammation compared with indomethacin ([11]; AAT and FGF, vs indomethacin): inferior to that of indomethacin; anti-inflammatory (acute), analgesic and antipyretic activities compared with indomethacin ([11]; acute inflammation, analgesic, antipyretic, vs indomethacin): almost equivalent to those of indomethacin; pharmacological activities compared with compound 1 ([11]; vs compound 1): comparable to those of compound 1; LD50 at 144 h (in vivo [10]): > 24 mg/kg; minimal effective dose ([4]; rats, AAT method): 1 mg/kg/day; toxicity compared with indomethacin (in words) (rats): far weaker than those of indomethacin; ED50 ([5]; rats, AGP method): 4.6 mg/kg; LD50 at 168 h (in vivo [7]): 260 mg/kg
COc1ccc2c(c1)c(CC(=O)O)c(C)n2C(=O)c1ccc(Cl)cc1 [compound 3, indomethacin, reference compound]	3.3 mg/kg	2 mg/kg/day	9.12 mg/kg	0.2 to 0.4 mg/kg/day	4.1 mg/kg	0.223 mg/kg	18.5 mg/kg	3.95 mg/kg	0.44 mg/kg	~5 mg/kg	–	–	–	–	–
